The assay deals with Veillonella spp. clinical isolates. Nature of the assay: MIC distribution against clinical isolates. The note with it: 30 Veillonella spp. isolates. It counts as cell-based. The text has this: (n=19 V. parvula, n=9 Veillonella spp., n=1 Veillonella dispr., n=1 V. atypica) clinical isolates (μg/mL).
As used herein, “minimum inhibitory concentration” or “MIC” refers to the lowest concentration of an antimicrobial agent, for example, an antimicrobial agent as described herein, required to inhibit the growth of an organism. […] “MIC90” represents the MIC value at which ≥90% of the strains within a test population are inhibited; the 90th percentile.
Many susceptibility testing methods are known in the art and can be used as described herein (see, e.g., Jorgensen and Ferraro (2009) Clinical Infectious Diseases 49:1749-1755; and Maurer et al. (2017) Infectious Disease Reports 9:6839; the entire contents of each of the foregoing are incorporated herein by reference). For example, antimicrobial susceptibility can be determined using conventional culture based methods such as the broth or agar dilution test. In these dilution tests, the bacterial isolate of interest is inoculated onto different media that include serial dilutions of an antimicrobial agent, and incubated under appropriate conditions (e.g., overnight at 37° C.) to allow for growth to occur. Following the incubation period, the media is examined to determine bacterial growth. The lowest concentration of antibiotic that prevents growth represents the minimal inhibitory concentration (MIC). Broth dilution tests can be miniaturized and mechanized allowing for reproducibility and high throughput.

Regarding `Cc1ncc([N+](=O)[O-])n1CCO` [MTZ], the “Cumulative percentage of isolates inhibited at MIC” value was 3.3% (MIC 1 μg/mL), 33.3% (MIC 2 μg/mL), 83.3% (MIC 4 μg/mL) and 100.0% (MIC >32 μg/mL). The “Number of test isolates at MIC” value runs as follows: (MIC 1 μg/mL) 1; (MIC 2 μg/mL) 9; (MIC 4 μg/mL) 15; (MIC >32 μg/mL) 5.

Values taken from patent US20210386367A1, “DEVICES AND SYSTEMS FOR GASTROINTESTINAL MICROBIOME DETECTION AND MANIPULATION” (Progenity, Inc., priority 2018, published 2021).
